For assay [1], the target named is Sphingosine 1-phosphate receptor 4 (Homo sapiens, UniProt O95977). Description: Late-stage fluorescence dose response cell-based assay to identify agonists of the Sphingosine 1-Phosphate Receptor 4 (S1P4): purchased compounds EC50. [Related pubchem assays (depositor defined):AID1509, AID1523, AID1563, AID1686, AID1701, AID1801]. It is filed as functional.
For another assay, the target named is Ephrin type-A receptor 4 (Mus musculus, UniProt Q03137). Description: EphA4 ligand-binding antagonists – biochemical, colorimetric, mouse EphA4, primary screen (AID 689). It is filed as functional.
A further assay deals with Trypsin (Sus scrofa, UniProt P00761). Put plainly: trypsin protease activity blockade – biochemical, quenched peptide fluorescence, cherry-pick, selectivity assay for Rce1 protease inhibitor project, dose response (AID 488789).
The target in the next assay is T1, CAAX prenyl protease 2 (Saccharomyces cerevisiae S288c, UniProt Q03530).
T1 sequence (Q03530 whole entry): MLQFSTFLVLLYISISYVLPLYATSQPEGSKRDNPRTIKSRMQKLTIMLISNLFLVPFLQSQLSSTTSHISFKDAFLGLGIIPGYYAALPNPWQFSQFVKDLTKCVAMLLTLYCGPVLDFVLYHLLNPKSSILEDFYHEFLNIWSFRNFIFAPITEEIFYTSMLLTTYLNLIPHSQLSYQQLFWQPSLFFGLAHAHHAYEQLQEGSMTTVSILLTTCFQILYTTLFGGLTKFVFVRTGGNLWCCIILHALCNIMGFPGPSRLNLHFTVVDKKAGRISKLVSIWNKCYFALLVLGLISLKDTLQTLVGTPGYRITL
It is filed as biochemical.

The target of another assay is CAAX prenyl protease 1 (Saccharomyces cerevisiae S288c, UniProt P47154). Put plainly: yeast CAAX protease Ste24 inhibition – biochemical, S. cerevisiae, plate reader, cherry-pick, dose response (AID 488815).
Assay [2] deals with 1-acylglycerol-3-phosphate O-acyltransferase ABHD5/Perilipin-5 (Homo sapiens, UniProt Q00G26+Q8WTS1). Put plainly: Luminescence-based biochemical high throughput dose response assay for inhibitors of the interaction of the lipase co-activator protein, abhydrolase domain containing 5 (ABHD5) with perilipin-5 (MLDP; PLIN5) (2K validation set). [Related pubchem assays (depositor defined):AID493035, AID493241].

The target of a further assay is Perilipin-1/ABHD5 (Homo sapiens, UniProt O60240+Q8WTS1). Put plainly: Luminescence-based biochemical high throughput dose response assay for inhibitors of the interaction of the lipase co-activator protein, abhydrolase domain containing 5 (ABHD5) with perilipin-1 (PLIN1) (2K validation set). [Related pubchem assays (depositor defined):AID493027, AID493057].
Assay [3] addresses T2, Tyrosine-protein phosphatase non-receptor type 7 (Homo sapiens, UniProt P35236).
T2 sequence (P35236 whole entry): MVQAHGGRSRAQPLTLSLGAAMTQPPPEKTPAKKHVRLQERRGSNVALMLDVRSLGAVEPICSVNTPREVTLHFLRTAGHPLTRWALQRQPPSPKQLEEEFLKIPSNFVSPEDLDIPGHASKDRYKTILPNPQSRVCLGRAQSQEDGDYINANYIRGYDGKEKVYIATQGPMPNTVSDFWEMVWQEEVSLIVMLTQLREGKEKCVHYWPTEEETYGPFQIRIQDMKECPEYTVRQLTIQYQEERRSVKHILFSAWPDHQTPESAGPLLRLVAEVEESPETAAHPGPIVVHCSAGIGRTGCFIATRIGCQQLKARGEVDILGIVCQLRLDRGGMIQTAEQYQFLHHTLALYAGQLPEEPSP
Put plainly: SAR analysis of chemical inhibitors of HePTP using a Fluorescent assay - Set 2. [Related pubchem assays (depositor defined):AID1059, AID1077, AID1661, AID2085, AID521]. It is filed as functional.

The target in assay [4] is Dual specificity protein phosphatase 3 (Homo sapiens, UniProt P51452). Put plainly: SAR VHR1 Fluorescent Assay for In Vitro dose response studies Set 2. [Related pubchem assays (depositor defined):AID1654, AID1661, AID1878]. It is filed as functional.
In assay [5] the target is T3, Mannose-6-phosphate isomerase (Homo sapiens, UniProt P34949).
T3 sequence (P34949 whole entry): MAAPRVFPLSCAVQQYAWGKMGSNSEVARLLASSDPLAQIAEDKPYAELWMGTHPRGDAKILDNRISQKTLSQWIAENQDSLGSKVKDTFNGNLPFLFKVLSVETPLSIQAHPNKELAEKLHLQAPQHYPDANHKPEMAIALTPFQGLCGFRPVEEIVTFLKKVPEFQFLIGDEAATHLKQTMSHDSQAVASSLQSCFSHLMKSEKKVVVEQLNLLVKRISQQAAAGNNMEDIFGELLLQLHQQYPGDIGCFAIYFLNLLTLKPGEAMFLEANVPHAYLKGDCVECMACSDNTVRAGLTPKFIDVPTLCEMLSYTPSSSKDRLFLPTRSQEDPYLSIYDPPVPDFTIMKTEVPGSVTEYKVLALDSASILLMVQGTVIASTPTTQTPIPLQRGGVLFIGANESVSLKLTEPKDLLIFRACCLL
Description: phosphomannose isomerase inhibition – biochemical, fluorescence intensity, confirmation (AID 1535).

A further assay addresses Phosphomannomutase 2 (Homo sapiens, UniProt O15305). Description: Counter screen SAR assay for PMM2 inhibitors via a fluorescence intensity assay. [Related pubchem assays (depositor defined):AID1545, AID1574]. In general terms: A counterscreen serves to expose hits that act by an unwanted route or on another target.
Assay [6] has as its target Phosphoethanolamine/phosphocholine phosphatase (Homo sapiens, UniProt Q8TCT1). Put plainly: SAR assay for compounds that inhibit PHOSPHO1. [Related pubchem assays (depositor defined):AID1545, AID1565, AID1574].
Assay [7] concerns the target T4, Beta-galactosidase (Escherichia coli, UniProt Q8VNN2). Put plainly: PubChem AID 485352. Format: functional.
A short description of assay [8]: Trypanosoma cruzi growth suppression in host cells – NIH3T3 host cells, beta-gal luminescence, confirmation (AID 2044).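 Note: intracellular parasites grown in NIH/3T3 mouse fibroblasts as host cells; luminescent beta-galactosidase reporter signal from transgenic T. cruzi replicating inside host cells; inhibitors lower the luminescence signal.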 Format: functional, cell-based.
Assay [9] deals with T5, Type-1 angiotensin II receptor (Homo sapiens, UniProt P30556).
T5 sequence (P30556 whole entry): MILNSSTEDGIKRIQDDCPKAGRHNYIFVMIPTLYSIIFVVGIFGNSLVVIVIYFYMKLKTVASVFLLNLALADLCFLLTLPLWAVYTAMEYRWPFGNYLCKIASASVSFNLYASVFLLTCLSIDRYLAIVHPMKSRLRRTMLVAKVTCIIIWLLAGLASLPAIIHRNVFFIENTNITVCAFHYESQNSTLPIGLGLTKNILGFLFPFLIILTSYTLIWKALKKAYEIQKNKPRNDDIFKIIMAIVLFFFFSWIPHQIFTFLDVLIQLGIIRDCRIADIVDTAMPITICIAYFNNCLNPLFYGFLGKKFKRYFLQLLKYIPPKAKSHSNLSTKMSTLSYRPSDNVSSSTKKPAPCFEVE
Put plainly: antagonism of angiotensin II type 1 receptor – cell-based, uHTS hits, selectivity assay for APJ receptor antagonist project, dose response (AID 463214).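 Note: antagonist potency against angiotensin II stimulated AT1 response.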 It is filed as functional.

Assay [10] concerns the target T6, Kappa-type opioid receptor (Homo sapiens, UniProt P41145). It is filed as functional.
A short description of assay [11]: NIH3T3 cell viability loss – ATP luminescence, mouse fibroblasts, counter-screen, dose response (AID 2010).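 Note: cells exposed to compound for about 90 hours before reading.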 Format: functional, cell-based.
Assay [12] addresses T4, Beta-galactosidase. Format: functional.
Assay [13] addresses T6, Kappa-type opioid receptor. It is filed as functional. The source holds these as a separate data set.
The target in the next assay is T7, Hexokinase HKDC1 (Homo sapiens, UniProt Q2TB90).
T7 sequence (Q2TB90 whole entry): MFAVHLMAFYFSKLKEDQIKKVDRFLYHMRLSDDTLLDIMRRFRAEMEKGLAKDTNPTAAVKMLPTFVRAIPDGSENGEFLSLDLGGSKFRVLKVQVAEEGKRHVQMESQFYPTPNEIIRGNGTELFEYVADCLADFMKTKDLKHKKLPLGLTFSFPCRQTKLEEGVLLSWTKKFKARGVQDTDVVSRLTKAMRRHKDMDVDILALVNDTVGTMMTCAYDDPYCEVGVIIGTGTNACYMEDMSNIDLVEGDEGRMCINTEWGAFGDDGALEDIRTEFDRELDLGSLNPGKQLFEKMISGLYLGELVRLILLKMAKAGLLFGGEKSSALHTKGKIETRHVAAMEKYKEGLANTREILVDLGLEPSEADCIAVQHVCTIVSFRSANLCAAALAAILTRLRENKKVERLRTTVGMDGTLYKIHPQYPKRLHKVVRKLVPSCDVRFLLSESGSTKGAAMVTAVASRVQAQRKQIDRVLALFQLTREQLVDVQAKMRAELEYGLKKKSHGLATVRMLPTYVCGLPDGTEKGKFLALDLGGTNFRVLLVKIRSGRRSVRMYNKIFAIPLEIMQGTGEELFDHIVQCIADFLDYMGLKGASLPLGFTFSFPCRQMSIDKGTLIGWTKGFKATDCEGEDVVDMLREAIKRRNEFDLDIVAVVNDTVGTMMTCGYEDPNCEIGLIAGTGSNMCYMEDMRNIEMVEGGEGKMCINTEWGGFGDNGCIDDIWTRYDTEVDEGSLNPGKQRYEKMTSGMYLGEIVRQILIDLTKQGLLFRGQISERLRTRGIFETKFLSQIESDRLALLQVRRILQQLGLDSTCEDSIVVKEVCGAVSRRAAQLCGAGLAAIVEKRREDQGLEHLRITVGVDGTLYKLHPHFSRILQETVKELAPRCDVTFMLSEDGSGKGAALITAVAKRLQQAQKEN
Description: activation of HKDC1 glucose phosphorylation – biochemical, W721R variant, dose response (AID 504730). Format: functional.

Another assay has as its target Hexokinase-1 (Homo sapiens, UniProt P19367). Description: HK1 enzyme activation by HKDC1 hits – biochemical, selectivity assay for HKDC1 activator project, dose response (AID 504762). Format: functional.
Assay [14] concerns the target 26S proteasome non-ATPase regulatory subunit 14 (Homo sapiens, UniProt O00487). Put plainly: inhibition of proteasome subunit RPN11 – biochemical, fluorescence polarization, uHTS hits, confirmation (AID 602368). It is filed as functional. On the technique in general: In fluorescence polarisation assays a small probe gives low polarisation when free and higher when bound to something large.

Assay [15] has as its target 72 kDa type IV collagenase (Homo sapiens, UniProt P08253). Description: Dose Response validation of uHTS RPN11 inhibitor hits using a MMP-2 Fluorescence assay. Format: functional.
In another assay the target is Prothrombin (Bos taurus, UniProt P00735). Put plainly: thrombin protease inhibitors – biochemical, fluorescence polarization, uHTS hits, dose response (AID 602369). Format: functional.
The target in the next assay is Protein Wnt-3a (Mus musculus, UniProt P27467). Description: antagonism of Wnt3a pathway luciferase reporter – Wnt-LIGHT cells, luminescence, selectivity assay for Gli-SUFU antagonist project, dose response (AID 651570).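 Note: Wnt-LIGHT reporter cells stimulated with conditioned medium from Wnt3a-producing cells.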 It is filed as functional. As to conditions: read-out: IC50_Mean.

Activity calls are given as the source filed them. A value given as a limit tells only on which side of the number the result lay.

Our source for the EC50, IC50 and AC50 values is ChEMBL document CHEMBL1201862, “PubChem BioAssay data set” (2004).

For orientation: EC50 means the concentration needed to bring the measured effect to its halfway point. The term AC50 denotes the concentration at which the activity in the assay is half-maximal.

T4 sequence (Q8VNN2 whole entry): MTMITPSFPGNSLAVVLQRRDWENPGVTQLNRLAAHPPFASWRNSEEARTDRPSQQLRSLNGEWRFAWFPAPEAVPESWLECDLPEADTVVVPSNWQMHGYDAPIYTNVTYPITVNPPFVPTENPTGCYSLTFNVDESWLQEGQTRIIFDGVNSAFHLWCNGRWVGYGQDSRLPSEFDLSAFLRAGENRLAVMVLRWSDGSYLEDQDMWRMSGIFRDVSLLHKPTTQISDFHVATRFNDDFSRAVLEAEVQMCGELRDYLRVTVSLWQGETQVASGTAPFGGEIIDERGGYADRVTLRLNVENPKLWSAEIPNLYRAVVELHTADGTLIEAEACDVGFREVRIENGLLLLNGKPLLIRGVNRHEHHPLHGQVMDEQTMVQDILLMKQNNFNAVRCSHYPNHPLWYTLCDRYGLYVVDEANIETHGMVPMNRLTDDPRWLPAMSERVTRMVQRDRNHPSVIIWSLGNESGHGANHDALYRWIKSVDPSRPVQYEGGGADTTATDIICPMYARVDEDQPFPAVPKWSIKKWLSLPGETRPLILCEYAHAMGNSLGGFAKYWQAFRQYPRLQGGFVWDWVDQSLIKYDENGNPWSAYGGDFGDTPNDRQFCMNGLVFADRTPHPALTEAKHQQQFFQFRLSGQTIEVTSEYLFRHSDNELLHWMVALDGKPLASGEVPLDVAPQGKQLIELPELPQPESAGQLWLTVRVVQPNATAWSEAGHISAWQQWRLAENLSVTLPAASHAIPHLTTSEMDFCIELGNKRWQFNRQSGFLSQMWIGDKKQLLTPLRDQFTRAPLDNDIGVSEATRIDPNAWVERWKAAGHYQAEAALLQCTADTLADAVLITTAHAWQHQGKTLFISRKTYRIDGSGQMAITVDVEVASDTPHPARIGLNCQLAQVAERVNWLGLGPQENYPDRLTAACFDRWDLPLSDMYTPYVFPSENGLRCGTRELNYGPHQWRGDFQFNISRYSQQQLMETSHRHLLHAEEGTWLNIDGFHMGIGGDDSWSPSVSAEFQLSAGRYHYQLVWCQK
T6 sequence (P41145 whole entry): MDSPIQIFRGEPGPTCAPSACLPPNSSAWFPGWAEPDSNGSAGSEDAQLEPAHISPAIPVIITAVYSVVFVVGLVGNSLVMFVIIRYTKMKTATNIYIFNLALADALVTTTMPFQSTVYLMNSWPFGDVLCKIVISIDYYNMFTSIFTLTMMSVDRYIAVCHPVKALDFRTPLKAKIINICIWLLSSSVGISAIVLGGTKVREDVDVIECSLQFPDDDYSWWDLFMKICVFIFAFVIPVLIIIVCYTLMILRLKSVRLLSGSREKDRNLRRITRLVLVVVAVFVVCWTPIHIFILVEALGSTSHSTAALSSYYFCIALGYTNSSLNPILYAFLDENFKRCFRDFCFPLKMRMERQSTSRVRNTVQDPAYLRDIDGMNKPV
Sequence of Trypsin (P00761 whole entry): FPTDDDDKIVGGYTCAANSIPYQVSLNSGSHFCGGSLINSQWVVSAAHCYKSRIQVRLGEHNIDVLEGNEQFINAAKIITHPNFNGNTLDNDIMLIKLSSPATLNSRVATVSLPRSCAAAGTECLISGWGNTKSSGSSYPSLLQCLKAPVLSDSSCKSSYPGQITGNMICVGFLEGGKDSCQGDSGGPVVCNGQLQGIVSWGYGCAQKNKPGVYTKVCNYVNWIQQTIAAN
Sequence of 26S proteasome non-ATPase regulatory subunit 14 (O00487 whole entry): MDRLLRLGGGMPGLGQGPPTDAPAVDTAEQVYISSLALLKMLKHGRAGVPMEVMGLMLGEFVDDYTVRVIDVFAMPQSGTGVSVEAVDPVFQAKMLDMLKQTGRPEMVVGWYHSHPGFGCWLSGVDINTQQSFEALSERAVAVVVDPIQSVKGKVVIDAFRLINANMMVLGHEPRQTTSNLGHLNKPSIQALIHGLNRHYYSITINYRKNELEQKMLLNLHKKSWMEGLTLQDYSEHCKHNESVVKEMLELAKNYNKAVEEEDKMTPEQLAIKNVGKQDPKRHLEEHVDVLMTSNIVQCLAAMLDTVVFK
Sequence of Dual specificity protein phosphatase 3 (P51452 whole entry): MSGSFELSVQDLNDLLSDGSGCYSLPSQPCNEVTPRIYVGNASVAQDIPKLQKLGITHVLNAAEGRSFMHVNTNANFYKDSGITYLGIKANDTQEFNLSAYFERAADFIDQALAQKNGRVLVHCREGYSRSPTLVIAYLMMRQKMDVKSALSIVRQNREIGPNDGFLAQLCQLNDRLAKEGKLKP
Sequence of Perilipin-1/ABHD5 (Q8WTS1 whole entry, the tested form may be a part): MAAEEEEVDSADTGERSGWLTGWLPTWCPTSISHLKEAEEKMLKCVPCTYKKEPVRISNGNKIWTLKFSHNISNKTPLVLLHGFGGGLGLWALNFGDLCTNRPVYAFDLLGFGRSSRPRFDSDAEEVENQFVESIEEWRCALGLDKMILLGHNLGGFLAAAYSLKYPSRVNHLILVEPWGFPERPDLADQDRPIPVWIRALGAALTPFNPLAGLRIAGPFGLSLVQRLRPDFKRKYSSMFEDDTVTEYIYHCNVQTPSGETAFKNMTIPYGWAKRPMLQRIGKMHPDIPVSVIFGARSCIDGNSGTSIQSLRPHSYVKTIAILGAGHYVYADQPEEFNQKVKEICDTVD
Sequence of Perilipin-1/ABHD5 (O60240 whole entry, the tested form may be a part): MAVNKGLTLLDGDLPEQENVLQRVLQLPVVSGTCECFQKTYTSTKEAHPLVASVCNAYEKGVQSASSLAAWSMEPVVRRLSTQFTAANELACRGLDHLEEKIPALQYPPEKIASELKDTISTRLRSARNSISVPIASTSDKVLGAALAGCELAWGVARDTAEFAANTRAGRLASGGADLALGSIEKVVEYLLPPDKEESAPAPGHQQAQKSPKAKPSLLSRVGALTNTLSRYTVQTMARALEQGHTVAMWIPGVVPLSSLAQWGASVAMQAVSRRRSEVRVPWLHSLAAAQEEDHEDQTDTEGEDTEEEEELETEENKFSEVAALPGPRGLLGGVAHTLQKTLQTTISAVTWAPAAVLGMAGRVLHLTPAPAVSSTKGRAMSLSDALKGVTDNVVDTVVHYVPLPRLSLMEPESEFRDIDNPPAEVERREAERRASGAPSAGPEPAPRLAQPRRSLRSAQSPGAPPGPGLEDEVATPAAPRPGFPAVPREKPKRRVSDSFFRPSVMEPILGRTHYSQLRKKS
Sequence of 72 kDa type IV collagenase (P08253 whole entry): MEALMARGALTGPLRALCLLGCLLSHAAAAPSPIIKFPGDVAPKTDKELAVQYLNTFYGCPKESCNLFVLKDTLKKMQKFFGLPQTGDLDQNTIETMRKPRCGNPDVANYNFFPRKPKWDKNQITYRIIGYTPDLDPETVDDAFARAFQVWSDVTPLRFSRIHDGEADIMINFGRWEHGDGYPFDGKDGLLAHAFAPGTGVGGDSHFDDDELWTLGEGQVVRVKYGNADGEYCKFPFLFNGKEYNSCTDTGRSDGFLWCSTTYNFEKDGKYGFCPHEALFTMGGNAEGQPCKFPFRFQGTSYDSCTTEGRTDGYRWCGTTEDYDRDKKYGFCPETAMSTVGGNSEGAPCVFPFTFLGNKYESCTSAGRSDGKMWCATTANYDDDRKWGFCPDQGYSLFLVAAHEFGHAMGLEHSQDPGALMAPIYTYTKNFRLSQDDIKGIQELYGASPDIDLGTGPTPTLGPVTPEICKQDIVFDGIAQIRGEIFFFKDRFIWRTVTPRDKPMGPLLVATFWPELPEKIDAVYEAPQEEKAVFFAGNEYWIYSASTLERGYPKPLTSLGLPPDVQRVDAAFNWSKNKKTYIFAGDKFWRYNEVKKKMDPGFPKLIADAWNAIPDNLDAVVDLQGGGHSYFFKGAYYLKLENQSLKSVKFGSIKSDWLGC
Sequence of Ephrin type-A receptor 4 (Q03137 whole entry): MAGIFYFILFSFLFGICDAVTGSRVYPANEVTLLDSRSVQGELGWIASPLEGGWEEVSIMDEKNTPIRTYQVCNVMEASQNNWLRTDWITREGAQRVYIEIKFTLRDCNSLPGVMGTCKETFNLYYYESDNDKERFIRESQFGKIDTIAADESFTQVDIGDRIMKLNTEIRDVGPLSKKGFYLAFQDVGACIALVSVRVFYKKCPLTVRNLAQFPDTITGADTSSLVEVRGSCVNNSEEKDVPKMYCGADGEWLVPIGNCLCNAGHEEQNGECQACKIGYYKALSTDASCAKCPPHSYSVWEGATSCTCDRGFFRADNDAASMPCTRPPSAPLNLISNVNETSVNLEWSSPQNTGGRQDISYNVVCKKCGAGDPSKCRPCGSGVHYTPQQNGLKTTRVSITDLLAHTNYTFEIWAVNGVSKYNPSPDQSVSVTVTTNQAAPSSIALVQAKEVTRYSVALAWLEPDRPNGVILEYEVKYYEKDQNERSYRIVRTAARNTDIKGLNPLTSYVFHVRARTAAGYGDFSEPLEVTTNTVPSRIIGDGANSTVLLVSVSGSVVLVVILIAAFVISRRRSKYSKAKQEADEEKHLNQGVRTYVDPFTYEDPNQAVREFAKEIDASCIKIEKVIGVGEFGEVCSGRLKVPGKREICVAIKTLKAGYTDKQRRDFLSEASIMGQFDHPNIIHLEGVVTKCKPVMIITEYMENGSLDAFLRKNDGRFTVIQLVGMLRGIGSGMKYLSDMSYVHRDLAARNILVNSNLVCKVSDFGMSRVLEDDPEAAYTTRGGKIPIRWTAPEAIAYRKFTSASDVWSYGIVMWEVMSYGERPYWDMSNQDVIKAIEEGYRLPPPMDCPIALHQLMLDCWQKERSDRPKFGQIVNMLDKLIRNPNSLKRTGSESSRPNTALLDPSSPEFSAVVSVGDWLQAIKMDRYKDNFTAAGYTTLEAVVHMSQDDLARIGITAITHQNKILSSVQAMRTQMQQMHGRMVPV
Sequence of Phosphomannomutase 2 (O15305 whole entry): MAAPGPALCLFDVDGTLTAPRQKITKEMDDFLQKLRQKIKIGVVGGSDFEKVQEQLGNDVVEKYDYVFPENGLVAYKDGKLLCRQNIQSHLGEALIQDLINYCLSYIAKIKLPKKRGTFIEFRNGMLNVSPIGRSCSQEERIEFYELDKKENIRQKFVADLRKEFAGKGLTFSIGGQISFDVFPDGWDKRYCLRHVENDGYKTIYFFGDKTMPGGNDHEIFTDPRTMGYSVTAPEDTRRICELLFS

For the compound `Cc1ccc(OCC(=O)Nc2ccc(Cl)cc2)c([N+](=O)[O-])n1`, in [1], the EC50 is > 50 µM (inactive).
In the case of `O=C(O)c1ccc(CN(c2ccccn2)S(=O)(=O)c2ccccc2)cc1`, the IC50 at Ephrin type-A receptor 4 is reported as > 100 µM (not active). For the same compound, the AC50 at Trypsin is 16.6 µM (active); at CAAX prenyl protease 2, 22 µM (active); on CAAX prenyl protease 1 it was 3.92 µM (active).
In the case of `CC1(c2ccccc2)CC(C)(C)N2C(=O)C(=O)c3cccc1c32` (stereo not given), the values for the IC50 (in assay [2]; at Perilipin-1/ABHD5) were 21.7 µM (inactive) and 19 µM (inactive), respectively.
Turning to `Oc1ccc(C(=S)NCc2ccc(F)c(C(F)(F)F)c2)cc1`, the IC50 in assay [3] is 30.9 µM (active); in assay [4], 40.9 µM (active).
`O=c1c2ccc([N+](=O)[O-])cc2sn1-c1cc(C(F)(F)F)ccc1Cl`: the values for the IC50 (in assay [5]; on Phosphomannomutase 2; in assay [6]) were > 50 µM (inactive), > 100 µM (inactive) and 0.252 µM (active), respectively.
For the compound `CC(=O)/C(=N\Nc1ccc(Cl)cc1Cl)Sc1cccc2cccnc12`, the EC50 on Beta-galactosidase [7] is > 40 µM (inactive); in [8] it was 0.289 µM (active); in assay [11], 26.7 µM (active); at Beta-galactosidase [12], > 31.5 µM (inactive); on Hexokinase HKDC1 it was 15.5 µM (active); on Hexokinase-1, > 80 µM (inactive). The IC50 in assay [9] is 10.6 µM (active); in assay [10] it was 9.32 µM (active); in assay [13] it was above 32 µM; in [14], 32.2 µM (active); in [15], > 100 µM (inactive); on Prothrombin, > 100 µM (inactive). Moreover, at Protein Wnt-3a, the IC50 was 11.4 µM (active).
